Measured values as given in US10450301B2, “Apoptosis signal-regulating kinase 1 inhibitors and methods of use thereof” (ENANTA PHARMACEUTICALS, INC., priority 2017, dated 2019).
pIC50: −log10 of the molar value.

Target: ASK1 (Homo sapiens (Human), UniProt Q99683)
Assay: HTRF KinEASE Assay (TR-FRET, STK3 peptide substrate), inhibition of ASK1
Type: biochemical
Details: 5 nM ASK1 kinase, 1 μM STK3 peptide substrate, 100 μM ATP, 3 hours; compound 0 to 10 μM
Description: Assay HTRF® KinEASE™ Assay
ASK1 was purchased from Thermofisher (Catalogue # PV4011), ATP was purchased from Sigma (Catalogue # A7699), HI-TRF® KinEASE™ Assay System was obtained from Cisbio (Bedford, Mass.). […] HTRF® KinEASE™-STK is a generic method for measuring serine/threonine kinase activities using a time-resolved fluorescence resonance energy transfer (TR-FRET) immunoassay. […] 100 Um ATP is added to start kinase reaction and incubated for 3 hours. The STK3-antibody labeled with Eu^3+-Cryptate and 125 Nm streptavidin-XL665 are mixed in a single addition with stop reagents provided by the Cisbio kit used to stop the kinase reaction. […] The resulting TR-FRET is proportional to the phosphorylation level. Staurosporine was used as the positive control. IC50 was determined by Xlfit 5.3.
By using above method, the inhibition of ASK1 was evaluated for the compounds of Formula (I).

Sequence of ASK1 (Q99683 whole entry): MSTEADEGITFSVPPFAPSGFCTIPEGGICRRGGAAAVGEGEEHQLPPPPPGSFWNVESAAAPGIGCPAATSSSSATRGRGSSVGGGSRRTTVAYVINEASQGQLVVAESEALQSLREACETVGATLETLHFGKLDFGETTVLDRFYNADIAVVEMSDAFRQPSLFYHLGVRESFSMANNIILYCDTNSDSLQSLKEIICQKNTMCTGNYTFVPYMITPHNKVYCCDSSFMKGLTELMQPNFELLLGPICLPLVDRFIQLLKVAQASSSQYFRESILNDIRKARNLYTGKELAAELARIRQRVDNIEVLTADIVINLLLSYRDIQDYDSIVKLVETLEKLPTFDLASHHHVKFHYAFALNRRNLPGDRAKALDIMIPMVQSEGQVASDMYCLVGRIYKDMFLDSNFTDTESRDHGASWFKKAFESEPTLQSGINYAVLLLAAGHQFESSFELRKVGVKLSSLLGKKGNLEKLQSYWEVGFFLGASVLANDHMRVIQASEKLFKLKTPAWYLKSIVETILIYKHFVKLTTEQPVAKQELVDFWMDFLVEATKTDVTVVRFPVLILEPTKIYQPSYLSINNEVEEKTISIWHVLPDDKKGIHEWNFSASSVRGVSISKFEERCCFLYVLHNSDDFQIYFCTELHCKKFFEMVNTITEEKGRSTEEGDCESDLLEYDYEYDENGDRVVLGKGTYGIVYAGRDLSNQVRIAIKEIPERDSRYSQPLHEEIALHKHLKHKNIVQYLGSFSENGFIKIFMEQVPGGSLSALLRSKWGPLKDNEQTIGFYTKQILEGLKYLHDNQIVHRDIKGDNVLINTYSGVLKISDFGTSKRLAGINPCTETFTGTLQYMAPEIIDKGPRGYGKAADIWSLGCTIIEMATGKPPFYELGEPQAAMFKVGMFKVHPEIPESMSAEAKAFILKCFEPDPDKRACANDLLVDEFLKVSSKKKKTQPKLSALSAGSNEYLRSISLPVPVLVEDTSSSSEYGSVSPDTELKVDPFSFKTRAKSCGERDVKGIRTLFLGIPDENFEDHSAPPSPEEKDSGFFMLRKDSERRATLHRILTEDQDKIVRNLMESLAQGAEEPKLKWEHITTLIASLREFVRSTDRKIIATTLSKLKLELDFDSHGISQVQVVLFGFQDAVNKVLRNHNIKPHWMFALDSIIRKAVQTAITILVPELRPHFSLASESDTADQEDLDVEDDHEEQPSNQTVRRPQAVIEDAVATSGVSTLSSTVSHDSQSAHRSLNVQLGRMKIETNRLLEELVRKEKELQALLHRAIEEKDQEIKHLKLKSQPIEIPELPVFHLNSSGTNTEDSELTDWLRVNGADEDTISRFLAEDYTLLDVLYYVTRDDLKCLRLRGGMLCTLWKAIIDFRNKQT

| pIC50 | Compound |
| --- | --- |
| 7.00 to 8.00 | COCCS(=O)(=O)N1CCc2cc(F)c(C(=O)Nc3cccc(-c4nnnn4C(C)C)n3)cc2C1 [Example 55] |
| 7.00 to 8.00 | CC(C)n1nnnc1-c1cccc(NC(=O)c2cc3c(cc2F)CCN(S(=O)(=O)CC(F)F)C3)n1 [Example 103] |
| 7.00 to 8.00 | CC(C)n1cnnc1-c1cccc(NC(=O)c2cc3c(cc2F)CCN(C(=O)OCc2ccccc2)C3)n1 [Example 53, benzyl 6-fluoro-7-((6-(4-isopropyl-4H-1,2,4-triazol-3-yl)pyridin-2-yl)carbamoyl)-3,4-dihydroisoquinoline-2(1H)-carboxylate] |
| 8.00 to 9.00 | C[C@H](CO)n1nnnc1-c1cccc(NC(=O)c2cc3c(cn2)CCN(Cc2ccccc2)C3)n1 [Example 133] |
| 8.00 to 9.00 | CCNC(=O)N1CCc2cnc(C(=O)Nc3cccc(-c4nnnn4C(C)C)n3)cc2C1 [Example 117] |
| 8.00 to 9.00 | C[C@H](CO)n1nnnc1-c1cccc(NC(=O)c2cc3c(cn2)CCN(C(=O)CCC(F)(F)F)C3)n1 [Example 123] |
| 8.00 to 9.00 | CCN(CC)C(=O)N1CCc2cc(F)c(C(=O)Nc3cccc(-c4nncn4C(C)C)n3)cc2C1 [Example 41] |
| 7.00 to 8.00 | CC1c2cc(C(=O)Nc3cccc(-c4nnnn4C(C)C)n3)c(F)cc2CCN1C(=O)N1CCCC1 (stereo not shown) [Example 69] |
| 6.00 to 7.00 | CC(C)n1nnnc1-c1cccc(NC(=O)c2ccc3c(c2)CN(C(=O)N2CCCC2)C3)n1 [Example 11] |
| 8.00 to 9.00 | CC(C)n1nnnc1-c1cccc(NC(=O)c2cc3c(cn2)CCN(C(=O)N(C)C)C3)n1 [Example 116] |
| 7.00 to 8.00 | CC(C)n1nnnc1-c1cccc(NC(=O)c2cc3c(cc2F)CCN(C(=O)N(C)CCC(F)(F)F)C3)n1 [Example 107] |
| 7.00 to 8.00 | C=CCNC(=O)N1CCc2ccc(C(=O)Nc3cccc(-c4nncn4C(C)C)n3)cc2C1 [Example 33] |
| 8.00 to 9.00 | C[C@H](CO)n1nnnc1-c1cccc(NC(=O)c2cc3c(cn2)CCN(C(=O)N2CCC2)C3)n1 [Example 185, (R)-6-(azetidine-1-carbonyl)-N-(6-(1-(1-hydroxypropan-2-yl)-1H-tetrazol-5-yl)pyridin-2-yl)-5,6,7,8-tetrahydro-2,6-naphthyridine-3-carboxamide] |
| 7.00 to 8.00 | CC(C)n1nnnc1-c1cccc(NC(=O)c2cc3c(cc2F)CCN(S(=O)(=O)C2CCCC2)C3)n1 [Example 85] |
| 7.00 to 8.00 | COc1cc2c(cc1C(=O)Nc1cccc(-c3nncn3C(C)C)n1)C(=O)N(C(C)C)C2 [Example 175, 2-isopropyl-N-(6-(4-isopropyl-4H-1,2,4-triazol-3-yl)pyridin-2-yl)-6-methoxy-3-oxoisoindoline-5-carboxamide] |
| 7.00 to 8.00 | CC(C)n1cnnc1-c1cccc(NC(=O)c2ccc3c(c2)CN(C(=O)OCc2ccccc2)C3)n1 [Example 3, benzyl 5-((6-(4-isopropyl-4H-1,2,4-triazol-3-yl)pyridin-2-yl)carbamoyl)isoindoline-2-carboxylate] |
| 7.00 to 8.00 | CC(C)n1nnnc1-c1cccc(NC(=O)c2cc3c(cn2)CCN(C(=O)N(C)CCC(F)(F)F)C3)n1 [Example 114] |
| 8.00 to 9.00 | CCn1cc(COC(=O)N2CCc3cnc(C(=O)Nc4cccc(-c5nnnn5[C@H](C)CO)n4)cc3C2)cn1 [Example 188, (1-ethyl-1H-pyrazol-4-yl)methyl (R)-7-((6-(1-(1-hydroxypropan-2-yl)-1H-tetrazol-5-yl)pyridin-2-yl)carbamoyl)-3,4-dihydro-2,6-naphthyridine-2(1H)-carboxylate] |
| 8.00 to 9.00 | CC(C)n1nnnc1-c1cccc(NC(=O)c2cc3c(cn2)CCN(C(=O)N2CCS(=O)(=O)CC2)C3)n1 [Example 137] |
| 7.00 to 8.00 | C[C@H](CO)n1nnnc1-c1cccc(NC(=O)c2cc3c(cc2F)CCN(C(=O)N(C)CC(F)(F)F)C3)n1 [Example 75, (R)-6-fluoro-N7-(6-(1-(1-hydroxypropan-2-yl)-1H-tetrazol-5-yl)pyridin-2-yl)-N2-methyl-N2-(2,2,2-trifluoroethyl)-3,4-dihydroisoquinoline-2,7(1H)-dicarboxamide] |
| < 6.00 | CCN(C)C(=O)N1Cc2ccc(C(=O)Nc3cccc(-c4nnnn4C(C)C)n3)cc2C1 [Example 13] |
| < 6.00 | CC(C)n1nnnc1-c1cccc(NC(=O)c2ccc3c(c2)CN(C(=O)OCc2ccccc2)C3)n1 [Example 2] |

| pIC50 | Compound |
| --- | --- |
| 7.00 to 8.00 | CC(C)CN(C)C(=O)N1CCc2cc(F)c(C(=O)Nc3cccc(-c4nnnn4C(C)C)n3)cc2C1 [Example 79] |
| < 6.00 | CC(=O)OC[C@@H](C)n1nnnc1-c1cccc(NC(=O)c2cc3c(cc2F)CCN(S(=O)(=O)CCC(F)(F)F)C3)n1 [Example 84] |
| 8.00 to 9.00 | CC(C)n1nnnc1-c1cccc(NC(=O)c2cc3c(cn2)CCN(S(=O)(=O)CC2CC(F)(F)C2)C3)n1 [Example 139] |
| 7.00 to 8.00 | CCN1CCc2cnc(C(=O)Nc3cccc(-c4nnnn4[C@H](C)CO)n3)cc2C1 [Example 136] |
| 7.00 to 8.00 | CC(C)n1nnnc1-c1cccc(NC(=O)c2cc3c(cc2F)CCN(S(=O)(=O)CCC(F)(F)F)C3)n1 [Example 40] |
| 8.00 to 9.00 | CC(C)n1cnnc1-c1cccc(NC(=O)c2cc3c(cc2F)CCN(C(=O)NC2CCCC2)C3)n1 [Example 51] |
| 7.00 to 8.00 | CC1c2cc(C(=O)Nc3cccc(-c4nnnn4C(C)C)n3)c(F)cc2CCN1S(=O)(=O)CCC(F)(F)F (stereo not shown) [Example 70] |
| 8.00 to 9.00 | CCOC(=O)N1CCc2cnc(C(=O)Nc3cccc(-c4nnnn4[C@H](C)CO)n3)cc2C1 [Example 145] |
| 8.00 to 9.00 | C[C@H](CO)n1nnnc1-c1cccc(NC(=O)c2cc3c(cn2)CCN(C(=O)C2CC2)C3)n1 [Example 155] |
| 7.00 to 8.00 | C=CCOC(=O)N1CCc2ccc(C(=O)Nc3cccc(-c4nncn4C(C)C)n3)cc2C1 [Example 59, allyl 7-((6-(4-isopropyl-4H-1,2,4-triazol-3-yl)pyridin-2-yl)carbamoyl)-3,4-dihydroisoquinoline-2(1H)-carboxylate] |
| 8.00 to 9.00 | COCCC(=O)N1CCc2cnc(C(=O)Nc3cccc(-c4nnnn4[C@H](C)CO)n3)cc2C1 [Example 122] |
| 7.00 to 8.00 | CC(C)n1nnnc1-c1cccc(NC(=O)c2cc3c(cc2F)CCN(C(=O)N2CCCC2)C3)n1 [Example 93] |
| < 6.00 | CC(C)n1nnnc1-c1cccc(NC(=O)c2cc3c(cn2)CN(C(=O)OCc2ccccc2)C3)n1 [Example 180] |
| 8.00 to 9.00 | CCOC(=O)N1CCc2cnc(C(=O)Nc3cccc(-c4nnnn4C(C)C)n3)cc2C1 [Example 118] |
| 8.00 to 9.00 | C[C@H](CO)n1nnnc1-c1cccc(NC(=O)c2cc3c(cn2)CCN(C(=O)NC2CC2)C3)n1 [Example 131] |
| 8.00 to 9.00 | CCN(CC)C(=O)N1CCc2cnc(C(=O)Nc3cccc(-c4nnnn4C(C)C)n3)cc2C1 [Example 113] |
| < 6.00 | CC(C)c1nnnn1-c1cccc(NC(=O)c2cc3c(cc2F)CCN(S(=O)(=O)CCC(F)(F)F)C3)n1 [Example 100] |
| 8.00 to 9.00 | C[C@H](CO)n1nnnc1-c1cccc(NC(=O)c2cc3c(cn2)CCN(S(=O)(=O)C2CC2)C3)n1 [Example 148] |
| 7.00 to 8.00 | CCN1CCN(C(=O)N2CCc3cc(F)c(C(=O)Nc4cccc(-c5nnnn5C(C)C)n4)cc3C2)C(=O)C1=O [Example 90] |
| 8.00 to 9.00 | CC(C)S(=O)(=O)N1CCc2cnc(C(=O)Nc3cccc(-c4nnnn4[C@H](C)CO)n3)cc2C1 [Example 149] |
| 7.00 to 8.00 | C[C@H](CO)n1nnnc1-c1cccc(NC(=O)c2cc3c(cn2)CCN(C(=O)NC2COC2)C3)n1 [Example 186] |
